{"source": "patent US20100093648A1", "about": "“TREATMENT OF MACULAR DEGENERATION-RELATED DISORDERS” (priority 2008, published 2010)", "test_system": "APOE4 HF-C mice", "assay": "Electroretinogram (ERG) in aged APOE4 mice on high fat/cholesterol diet (murine AMD model)", "format": "in vivo, mouse", "conditions": "aged male APOE4 mice, high cholesterol diet 8 weeks, scyllo-inositol 10 mg/ml in drinking water ad libitum", "text": "The ocular pathologies of AMD may be recapitulated in a murine model by applying three physiologically relevant risk factors: specific APOE genotype (APOE4), advanced age and high fat/cholesterol-rich (HF-C) diet. These mice develop sub-retinal pigment epithelium (RPE) deposits (basal deposits), RPE atrophy and choroidal neovascularization in a temporal, non-fully penetrant manner that is analogous to human AMD progression [Malek, G., et al., (2005), Proc Natl Acad Sci USA 102, 11900-5]. An electrophysiological phenotype is associated with this pathology. […] The ability of scyllo-inositol (AZD-103/ELN005) to prevent retina/RPE damage, the buildup of basal deposits and attenuation of the ERG was evaluated.\nAged male APOE4 mice housed conventionally, under ambient conditions maintained on water ad libitum and normal mouse chow (normal diet or ND), were assigned to three treatment groups. This assignment was random, although the ages of the animals were balanced across the groups. One group was maintained on the normal diet. The second group was switched to a high fat cholesterol (HFC) diet (35% fat, 20% protein, 45% carbohydrates, 1.25% cholesterol, 0.5% sodium cholate) for 8 weeks. The third group received scyllo-inositol (AZD-103/ELN005) ad libitum (dissolved in drinking water at 10 mg/ml) for 7 days. They were then switched to the HF-C diet for 8 weeks, during which time they continued to receive scyllo-inositol (AZD-103/ELN005) ad libitum. […] ERG tracings were recorded using a platinum iridium wire loop electrode placed in contact with the eye along with a drop of 2.5% hydroxypropyl methylcellulose. […] The a-wave amplitude was measured from baseline to the a-wave trough, and the b-wave amplitude was measured from the a-wave trough to the b-wave peak. • 4. […] Quantitation of photoreceptors. […] The thickness of outer nuclear layer and the linear density of photoreceptor will be calculated. […]\nAfter 8 weeks, animals were assessed by electroretinogram. […] The electrophysiological response to these flashes was recorded by an electrode touching the surface of the eye. […]", "data": [{"substance": "scyllo-inositol [scyllo-inositol (AZD-103/ELN005)]", "values": [{"measurement": "a-wave amplitude (ERG)", "result": "consistent"}, {"measurement": "retinal function as demonstrated by ERGs", "result": "prevented the retinal defect that was caused by high cholesterol diet"}, {"measurement": "scotopic b-wave amplitude (ERG)", "setting": "all flash intensities, compared with normal diet controls", "result": "virtually indistinguishable from the normal diet control animals"}]}]}
